# According to patent US20250320184A1 (SIRONAX LTD., priority 2022, published 2025):
# pIC50: −log10 of the molar value.
# Target: T1, SARM1 (50-724) (Homo sapiens, UniProt Q6SZW1)
# T1 sequence (Q6SZW1 50-724): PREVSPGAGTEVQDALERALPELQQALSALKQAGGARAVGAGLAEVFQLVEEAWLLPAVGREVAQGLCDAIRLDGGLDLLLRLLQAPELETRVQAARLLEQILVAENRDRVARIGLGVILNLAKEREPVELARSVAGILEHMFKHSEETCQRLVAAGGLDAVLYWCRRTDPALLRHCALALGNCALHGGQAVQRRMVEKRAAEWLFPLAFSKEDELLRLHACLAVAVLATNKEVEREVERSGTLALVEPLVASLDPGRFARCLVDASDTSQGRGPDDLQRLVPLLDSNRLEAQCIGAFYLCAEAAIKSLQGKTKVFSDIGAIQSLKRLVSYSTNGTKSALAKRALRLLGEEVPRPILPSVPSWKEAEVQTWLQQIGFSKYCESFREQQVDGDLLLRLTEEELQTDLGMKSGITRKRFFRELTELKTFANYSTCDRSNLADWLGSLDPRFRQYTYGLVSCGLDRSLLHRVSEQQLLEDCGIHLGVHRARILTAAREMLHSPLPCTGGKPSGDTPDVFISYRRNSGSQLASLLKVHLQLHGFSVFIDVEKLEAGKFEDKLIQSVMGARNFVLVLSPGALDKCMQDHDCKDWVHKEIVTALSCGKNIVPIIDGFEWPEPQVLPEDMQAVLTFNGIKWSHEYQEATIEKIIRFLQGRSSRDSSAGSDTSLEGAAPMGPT
# Test: biochemical
# Experimental: An enzymatic assay was performed in a 384-well plate using Dulbecco's phosphate-buffered saline (PBS) as the reaction buffer. […] The reaction was initiated by adding a mixture of 200 μM nicotinamide mononucleotide (NMN) as activator and 100 μM NAD^+ as substrate. After 1 h of incubation at room temperature, the reaction was terminated with 10 times volume of 70% acetonitrile, then centrifuged at 3800 rpm for 10 min.
row,pIC50,SMILES
1,> 7.00,"CC(Nc1ccc2c(c1)C(=O)N(C(C)C(N)=O)C2(C)C)c1nc(Cl)c(Cl)s1 (mixture of isomers) [Compound 334, 2-(5-((1-(4,5-dichlorothiazol-2-yl)ethyl)amino)-1,1-dimethyl-3-oxoisoindolin-2-yl)propanamide]"
2,> 7.00,"Cc1c2ccc(NC(C)c3nc(Cl)c(Cl)s3)cc2nn1C1CC(O)C1 (mixture of isomers) [Compound 339, 3-(6-((1-(4,5-dichlorothiazol-2-yl)ethyl)amino)-3-methyl-2H-indazol-2-yl)cyclobutan-1-ol]"
3,> 7.00,"CC(Nc1cc(F)c2ncn(C3CC(O)C3)c(=O)c2c1)c1cncc(Cl)c1Cl (mixture of isomers) [Compound 348, 6-((1-(4,5-dichloropyridin-3-yl)ethyl)amino)-8-fluoro-3-(3-hydroxycyclobutyl)quinazolin-4(3H)-one]"
4,< 6.00,"O=C1NCCc2ccc(NS(=O)(=O)N3CCCC4CCCCC43)cc21 (mixture of isomers) [Example 170, N-(1-oxo-1,2,3,4-tetrahydroisoquinolin-7-yl)octahydroquinoline-1(2H)-sulfonamide]"
5,6.30 to 7.00,O=C1NCCc2ccc(NS(=O)(=O)N3CCCC4CCCC43)cc21 (mixture of isomers) [Example 171]
6,< 6.00,"CC1CCC(C)N(S(=O)(=O)Nc2ccc3c(c2)C(=O)NCC3)C1 (mixture of isomers) [Example 172, 2,5-dimethyl-N-(1-oxo-1,2,3,4-tetrahydroisoquinolin-7-yl)piperidine-1-sulfonamide]"
7,6.30 to 7.00,"Cc1n[nH]c(=O)c2cc(NC(CC(O)CCO)c3nc(Cl)c(Cl)s3)ccc12 (mixture of isomers) [Example 293, 7-((1-(4,5-dichlorothiazol-2-yl)-3,5-dihydroxypentyl)amino)-4-methylphthalazin-1(2H)-one]"
8,< 6.00,"CCC1CCCCN1S(=O)(=O)Nc1ccc2c(c1)C(=O)NCC2 (racemic) [Compound 48, 2-ethyl-N-(1-oxo-1,2,3,4-tetrahydroisoquinolin-7-yl)piperidine-1-sulfonamide]"
9,> 7.00,"O=S(=O)(Nc1ccc2c(c1)C(O)CCC2)c1cccc(Cl)c1Cl (racemic) [Compound 56, 2,3-dichloro-N-(8-hydroxy-5,6,7,8-tetrahydronaphthalen-2-yl)benzenesulfonamide]"
10,6.30 to 7.00,"COC(=O)C1Cc2ccc(NS(=O)(=O)c3cccc(Cl)c3Cl)cc2C(=O)N1 (racemic) [Compound 90, methyl 7-((2,3-dichlorophenyl)sulfonamido)-1-oxo-1,2,3,4-tetrahydroisoquinoline-3-carboxylate]"
11,< 6.00,"CC(Nc1ccc2ccn(C)c(=O)c2c1)c1ncc(Cl)s1 (racemic) [Compound 182, 7-((1-(5-chlorothiazol-2-yl)ethyl)amino)-2-methylisoquinolin-1(2H)-one]"
12,6.30 to 7.00,"CC(Nc1ccc2ccn(C)c(=O)c2c1)c1cncc(Cl)c1Cl (racemic) [Compound 184, 7-((1-(4,5-dichloropyridin-3-yl)ethyl)amino)-2-methylisoquinolin-1(2H)-one]"
13,> 7.00,"CC(Nc1ccc2cc[nH]c(=O)c2c1)c1c(Cl)ccc(Cl)c1Cl (racemic) [Compound 185, 7-((1-(2,3,6-trichlorophenyl)ethyl)amino)isoquinolin-1(2H)-one]"
14,6.30 to 7.00,"CC(Nc1ccc2ccn(CC3CC3)c(=O)c2c1)c1cccc(Cl)c1Cl (racemic) [Compound 186, 2-(cyclopropylmethyl)-7-((1-(2,3-dichlorophenyl)ethyl)amino)isoquinolin-1(2H)-one]"
15,> 7.00,"CC(Nc1ccc2cc[nH]c(=O)c2c1)c1nc(Cl)c(Cl)s1 (racemic) [Compound 187, 7-((1-(4,5-dichlorothiazol-2-yl)ethyl)amino)isoquinolin-1(2H)-one]"
16,6.30 to 7.00,"CC(Nc1ccc2cc[nH]c(=O)c2c1)c1nc(Cl)sc1Cl (racemic) [Compound 190, 7-((1-(2,5-dichlorothiazol-4-yl)ethyl)amino)isoquinolin-1(2H)-one]"
17,> 7.00,"CC(C(N)=O)c1ccc(NS(=O)(=O)c2cccc(Cl)c2Cl)cc1 (racemic) [Compound 196, 2-(4-((2,3-dichlorophenyl)sulfonamido)phenyl)propanamide]"
18,> 7.00,"Cc1nc(C(C)Nc2ccc3cc[nH]c(=O)c3c2)sc1Cl (racemic) [Compound 207, 7-((1-(5-chloro-4-methylthiazol-2-yl)ethyl)amino)isoquinolin-1(2H)-one]"
19,6.30 to 7.00,"Cc1nc(C(C)Nc2ccc3cc[nH]c(=O)c3c2)c(Cl)n1C (racemic) [Compound 214, 7-((1-(5-chloro-1,2-dimethyl-1H-imidazol-4-yl)ethyl)amino)isoquinolin-1(2H)-one]"

row,pIC50,SMILES
1,> 7.00,"CC(Nc1ccc2c(c1)NC(=O)C2(C)C)c1c(Cl)ccc(F)c1Cl (racemic) [Compound 215, 6-[1-(2,6-dichloro-3-fluoro-phenyl)ethylamino]-3,3-dimethyl-indolin-2-one]"
2,> 7.00,"Cc1nc(C(C)Nc2ccc3nc[nH]c(=O)c3c2)sc1Cl (racemic) [Compound 216, 6-((1-(5-chloro-4-methylthiazol-2-yl)ethyl)amino)quinazolin-4(3H)-one]"
3,6.30 to 7.00,"CC(Nc1ccc2c(c1)NC(=O)CCC2)c1nc(Cl)c(Cl)s1 (racemic) [Compound 229, 8-[1-(4,5-dichlorothiazol-2-yl)ethylamino]-1,3,4,5-tetrahydro-1-benzazepin-2-one]"
4,6.30 to 7.00,"CC(Nc1ccc2c(c1)NC(=O)CC2)c1nc(Cl)c(Cl)s1 (racemic) [Compound 230, 7-[1-(4,5-dichlorothiazol-2-yl)ethylamino]-3,4-dihydro-1H-quinolin-2-one]"
5,> 7.00,"CC(Nc1ccc2ccc(=O)[nH]c2c1)c1nc(Cl)c(Cl)s1 (racemic) [Compound 231, 7-[1-(4,5-dichlorothiazol-2-yl)ethylamino]-1H-quinolin-2-one]"
6,6.30 to 7.00,"CC(Nc1ccc2cc[nH]c(=O)c2c1)c1nn2c(c1Cl)CCCC2 (racemic) [Compound 232, 7-((1-(3-chloro-4,5,6,7-tetrahydropyrazolo[1,5-a]pyridin-2-yl)ethyl)amino)isoquinolin-1(2H)-one]"
7,6.30 to 7.00,"CC(Nc1ccc2cc[nH]c(=O)c2c1)c1nc(Cl)c(Cl)n1C (racemic) [Compound 233, 7-((1-(4,5-dichloro-1-methyl-1H-imidazol-2-yl)ethyl)amino)isoquinolin-1(2H)-one]"
8,6.30 to 7.00,"CC(Nc1ccc2cc[nH]c(=O)c2c1)c1nc2c(s1)CCCC2 (racemic) [Compound 236, 7-((1-(4,5,6,7-tetrahydrobenzo[d]thiazol-2-yl)ethyl)amino)isoquinolin-1(2H)-one]"
9,6.30 to 7.00,"CC(Nc1ccc2c(c1)c(C(=O)N(C)C)nn2C)c1c(Cl)ccc(F)c1Cl (racemic) [Compound 245, 5-((1-(2,6-dichloro-3-fluorophenyl)ethyl)amino)-N,N1-trimethyl-1H-indazole-3-carboxamide]"
10,> 7.00,"CNC(=O)c1nn(C)c2ccc(NC(C)c3c(Cl)ccc(F)c3Cl)cc12 (racemic) [Compound 246, 5-((1-(2,6-dichloro-3-fluorophenyl)ethyl)amino)-N,1-dimethyl-1H-indazole-3-carboxamide]"
11,> 7.00,"CCn1nc(C(C)Nc2ccc3cc[nH]c(=O)c3c2)c(Cl)c1C (racemic) [Compound 247, 7-((1-(4-chloro-1-ethyl-5-methyl-1H-pyrazol-3-yl)ethyl)amino)isoquinolin-1(2H)-one]"
12,6.30 to 7.00,"COc1nccc2ccc(NC(C)c3c(Cl)nn(C)c3Cl)cc12 (racemic) [Compound 248, N-(1-(3,5-dichloro-1-methyl-1H-pyrazol-4-yl)ethyl)-1-methoxyisoquinolin-7-amine]"
13,> 7.00,"CC(Nc1ccc2cn[nH]c2c1)c1nc(Cl)c(Cl)s1 (racemic) [Compound 249, N-(1-(4,5-dichlorothiazol-2-yl)ethyl)-1H-indazol-6-amine]"
14,> 7.00,"O=c1[nH]ccc2ccc(NC(CCO)c3cccc(Cl)c3Cl)cc12 (racemic) [Compound 252, 7-((1-(2,3-dichlorophenyl)-3-hydroxypropyl)amino)isoquinolin-1(2H)-one]"
15,> 7.00,"CC(C)(O)C(Nc1ccc2cc[nH]c(=O)c2c1)c1cccc(Cl)c1Cl (racemic) [Compound 253, 7-((1-(2,3-dichlorophenyl)-2-hydroxy-2-methylpropyl)amino)isoquinolin-1(2H)-one]"
16,> 7.00,"CC(Nc1ccc2cc[nH]c(=O)c2c1)c1nn(C)c(Cl)c1Cl (racemic) [Compound 256, 7-((1-(4,5-dichloro-1-methyl-1H-pyrazol-3-yl)ethyl)amino)isoquinolin-1(2H)-one]"
17,> 7.00,"Cc1c(Cl)c(C(C)Nc2ccc3cc[nH]c(=O)c3c2)nn1CC(F)(F)F (racemic) [Compound 257, 7-((1-(4-chloro-5-methyl-1-(2,2,2-trifluoroethyl)-1H-pyrazol-3-yl)ethyl)amino)isoquinolin-1(2H)-one]"
18,> 7.00,"CC(Nc1ccc2c(c1)NC(=O)OC2(C)C)c1nc(Cl)c(Cl)s1 (racemic) [Compound 258, 7-((1-(4,5-dichlorothiazol-2-yl)ethyl)amino)-4,4-dimethyl-1,4-dihydro-2H-benzo[d][1,3]oxazin-2-one]"
